Source: PubChem BioAssay (NCI)
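Protocol summary: plate cells (96-well), add compound at 5 concentrations, incubate 48 h, interpolate endpoints linearly. At the GI50, growth is halved. At the TGI there is no net growth.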

Key:
Experiment in all cases: growth of human tumour cells (NCI), 48 h
[1] = test system: MOLT-4 leukemia
[2] = test system: NCI-H226 lung
[3] = test system: NCI-H23 lung
[4] = test system: NCI-H460 lung
[5] = test system: NCI-H522 lung
[6] = test system: OVCAR-3 ovarian
[7] = test system: OVCAR-4 ovarian
[8] = test system: OVCAR-8 ovarian
[9] = test system: PC-3 prostate
[10] = test system: RPMI-8226 leukemia
[11] = test system: RXF 393 renal
[12] = test system: SF-268 CNS
[13] = test system: SF-295 CNS
[14] = test system: SF-539 CNS
[15] = test system: SK-MEL-2 melanoma
[16] = test system: SK-MEL-28 melanoma
[17] = test system: SK-MEL-5 melanoma
[18] = test system: SK-OV-3 ovarian
[19] = test system: SN12C renal
[20] = test system: SNB-19 CNS
[21] = test system: SR leukemia
[22] = test system: SW-620 colon
[23] = test system: T-47D breast
[24] = test system: TK-10 renal
[25] = test system: U251 CNS
[26] = test system: UACC-257 melanoma
[27] = test system: UACC-62 melanoma
[28] = test system: UO-31 renal

## COc1cc(/C=C/C(=O)c2cnn(-c3cc(=O)[nH]c4ccccc34)c2C)cc(OC)c1OC
[1]
  GI50: 3.28 µM
  TGI: > 100 µM
[2]
  GI50: 5.24 µM
  TGI: 47.8 µM
[3]
  GI50: 2.66 µM
  TGI: 7.98 µM
[4]
  GI50: 2.55 µM
  TGI: 7.29 µM
[5]
  GI50: 3.74 µM
  TGI: 39.8 µM
[6]
  GI50: 3.57 µM
  TGI: > 100 µM
[7]
  GI50: 5.48 µM
  TGI: > 100 µM
[8]
  GI50: 2.11 µM
  TGI: 5.09 µM
[9]
  GI50: 7.39 µM
  TGI: > 100 µM
[10]
  GI50: 2.99 µM
  TGI: > 100 µM
[11]
  GI50: 2.65 µM
  TGI: 8.21 µM
[12]
  GI50: 4.26 µM
  TGI: > 100 µM
[13]
  GI50: 2.95 µM
  TGI: 18.1 µM
[14]
  GI50: 2.01 µM
  TGI: 4.84 µM
[15]
  GI50: 2.89 µM
  TGI: 10.2 µM
[16]
  GI50: 4.94 µM
  TGI: > 100 µM
[17]
  GI50: 3.51 µM
  TGI: 14.7 µM
[18]
  GI50: 5.03 µM
  TGI: 35.9 µM
[19]
  GI50: 2.2 µM
  TGI: 8.36 µM
[20]
  GI50: 5.23 µM
  TGI: > 100 µM
[21]
  GI50: 3.82 µM
  TGI: > 100 µM
[22]
  GI50: 3.59 µM
  TGI: > 100 µM
[23]
  GI50: 2.8 µM
  TGI: > 100 µM
[24]
  GI50: 4.62 µM
  TGI: > 100 µM
[25]
  GI50: 2.74 µM
  TGI: 13.6 µM
[26]
  GI50: 7.03 µM
  TGI: > 100 µM
[27]
  GI50: 5.18 µM
  TGI: 20.5 µM
[28]
  GI50: 4.03 µM
  TGI: 37.1 µM
